Tests used:
[1] = high doses for local anesthesia; cited from earlier work
[2] = off-label patient trial, oromucosal/sublingual formulation; format: in vivo, human
Protocol: The formulation of the invention was used “off-label” to treat a number of patients to determine its effect as set out in Example 2.
In the Netherlands, 22 patients were treated with the formulation of Example 1a as follows: […]
10 patients had COVID-19 symptoms (and were positive and were seen by their general practitioner). All 10 patients presented with early signs of respiratory distress; tachypnea (more than 30 breaths per minute), high fever and dry cough and a decreased Sp02<90.
6 patients had post-COVID respiratory complaints. They were experiencing long-term complaints, ranging from coughing, fatigue and shortness of breath to anxiety and physical limitations.
6 patients suffered with various autoimmune diseases as follows: • 1 patient had rheumatoid arthritis. • 1 patient had scleroderma; • 1 patient had dermatomyositis; • 1 patient had morbus Parkinson; • 2 patients had psoriasis.
All patients were given the formulation as described in Example 1a above, up to 6 times a day, for up to 2 weeks.

## CCN(CC)CC(=O)Nc1c(C)cccc1C [lidocaine]
[1]
  dose at which methemoglobinemia can occur: 4-5 mg/kg bodyweight
[2]; 10 patients, sublingual
  response of COVID-19 patients with early signs of respiratory distress: responded well
[2]; delivered oromucosally or sublingually, 4-6 times a day
  effective adult unit dose: 60 to 100 mg
